Numbered stars: 1 amine (or outer) side, 2 acyl side, 3 side chain; on linkers, the order of the positions; unused ones are H or OH. Bridge positions count the residues as written; N and C are the ends. Square brackets hold non-standard residues; d marks the D form. Peptide text beside a SMILES is read from it. I, II: the chains in the order shown. * marks the point of attachment. 5FAM = O=C1OC2(c3ccc(O)cc3Oc3cc(O)ccc32)c2ccc(C(=O)*)cc21; X1 = NC(=O)NC(COCCCN[*:1])(COCCCN[*:2])COCCCN[*:3]; Nle = CCCC[C@H](N)C(=O)O; AEEA = NCCOCCOCC(=O)O
Key:
[1] = test system: isolated healthy human neutrophils; assay: Confocal time course of primed neutrophils activated with fMLF; type: cell-based; conditions: co-incubation with Sivelestat 100 µM; Cytochalasin B primed, fMLF 500 nM, NAP 5 µM
Description: Where stated commercial stains were used in accordance with the manufacturer’s instructions or applied to a suspension of the relevant cells in eppendorfs at a concentration of 1:1000 from delivered stock for 10 min at 37 °C and 500 rpm using an orbital plate shaker before undergoing one wash in PBS without divalent cations as described above. 8 well Lab-Tek II confocal chambers (VWR, PA, USA) were coated in fibronectin (1 µg/ml, Sigma-Aldrich) for 10 min at 37 °C. Wells were then washed twice before the addition of the appropriate cell suspension. Cells were typically seeded at a concentration of 0.5—1 × 10^6/mL. […]
A laser scanning confocal imaging system (LSM510; Carl Zeiss, Jena, Germany), incorporating an upright Axioskop FS2 microscope (× 63 objective) was used for image acquisition. […] Fluorescein based dyes were excited with a dedicated 488 nm laser line, with emitted light detected at 500–530 nm. Syto 82 nuclear, calcein cytoplasmic dyes and CellMask Orange plasma membrane stain (all Invitrogen, Thermoscientific) were excited with a dedicated 543 nm line, with emitted light detected at 560–600 nm. Syto 60 (Invitrogen, Thermoscientific) stain was excited with a dedicated 633 nm line, with emitted light detected at 650–680 nm. PKH labelled bacteria were excited with a dedicated 633 nm line with emitted light detected at 650–705 nm. […]

[2] = test system: freshly isolated neutrophils; assay: Flow cytometry of intracellular NAP fluorescence in isolated neutrophils; type: cell-based, human; conditions: A23187 10 µM activated neutrophils, NAP 5 µM; Dynasore Hydrate 30 µM, DPI 10 µM, Sivelestat 100 µM; 30 min 37 °C
Description: Neutrophils were suspended in PBS with divalent cations at a concentration of 10 × 10^6/mL. […] Incubation took place at 37 °C for 30 min and samples were shaken at 500 rpm using an orbital plate shaker (Thermomixer comfort, Eppendorf, Hamburg, Germany). Suspensions were then incubated with anti-human CD11b-APC (1:100 dilution, Clone ICRF44, Biolegend, CA, USA) at 22 °C for 30 min at 500 rpm before the application of NAP to a final concentration of 5 µM for 15 min at 22 °C and 500 rpm. Cells were washed in PBS without divalent cations at 350 g for 5 min at room temperature using a microtube centrifuge (Biofuge fresco, Heraeus, Hanau, Germany) and reconstituted in 175 µL PBS without divalent cations. Samples were loaded onto a 96 round-bottomed well plate (Corning).
Flow cytometry was performed using an Accuri C6 flow cytometer and BD CSampler software (both Becton–Dickinson, NJ, USA). Compensation beads and single stain controls were used where appropriate. […] The cytometer was thresholded on forward scatter to eliminate debris. The cytometer was aligned monthly using Calibrite 3, APC and 8 peak beads (Becton–Dickinson) to calibrate scatter and fluorescence parameters.
Data analyses were performed using Flowjo v10.0.8r1 (Treestar, Ashland, OR, USA). Samples were repeated in duplicate for each individual donor and pooled to yield a point estimate for each condition and each donor. The point estimates from different donors were pooled to yield an overall mean point estimate for each condition ± SE.

[3] = target: T1, human neutrophil elastase (HNE) (Homo sapiens, UniProt P08246); assay: Plate reader assessment of probe de-quenching with purified HNE; type: biochemical
T1 construct: purchased Elastin Products Company, MO, USA
T1 sequence (P08246 30-267): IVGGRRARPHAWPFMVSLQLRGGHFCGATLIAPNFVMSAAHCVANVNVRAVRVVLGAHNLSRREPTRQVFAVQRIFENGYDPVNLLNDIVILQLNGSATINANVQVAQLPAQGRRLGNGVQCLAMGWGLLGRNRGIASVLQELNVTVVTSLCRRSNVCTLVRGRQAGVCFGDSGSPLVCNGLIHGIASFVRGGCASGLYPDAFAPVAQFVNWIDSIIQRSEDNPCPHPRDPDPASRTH
Description: To generate an emission spectrum, NAP was excited at 430 nm to ensure the spectrum could be visualized to the x-axis. Excitation/absorbance spectra were obtained with NAP diluted to 5 µM in PBS or freshly prepared pH buffer. Purified HNE (Elastin Products Company, MO, USA) and purified proteinase 3 (Sigma-Aldrich, Poole, UK) were made up according to the manufacturer’s instructions to yield appropriate stock concentrations. Stock preparations of purified enzyme were prepared according to manufacturers’ instructions and subsequently diluted appropriately with Phosphate Buffered Saline (PBS, Thermoscientific, MA, USA) and NAP to achieve a final volume of 200 µL per condition and a final NAP concentration of 5 µM. Solutions were prepared directly into 96 well plates (Corning, NY, USA) on ice, with or without the human neutrophil elastase inhibitor Sivelestat (ONO-5046, 100 µM, Tocris, Bristol, UK). Plates were subsequently incubated at 37 °C with fluorescent parameters recorded every minute for 1 h (Fig. 1C, excitation 488 nm, emission 525 nm). All fluorescence parameters were recorded using a microplate reader (Synergy H1 hybrid reader, BioTek, Potton, UK,).

[4] = Change in fluorescence with pH (plate reader); type: physicochemical; conditions: carboxyfluorescein 15 µM, freshly made pH buffer; n = 1, in triplicate
[5] = GLP AMES mutagenicity test, microsuspension-modified method
[6] = test system: freshly isolated human peripheral neutrophils; assay: Neutrophil toxicity (Annexin V / propidium iodide flow cytometry); type: cell-based; conditions: 5 µM NAP, 18 h, 37 °C, IMDM with 10% autologous serum, Annexin V/PI
Description: (§1) Membrane toxicity of NAP was assessed using erythrocyte haemolysis. Isolated erythrocytes remaining after leukocyte separation were diluted 1:5 with PBS without cations and 50 µL of this red cell suspension was added to wells of a 96-well plate. Working concentration of NAP (5 µM), or working concentration × 2, was added to the relevant well. Positive control wells contained Triton X-100 (0.4%, Sigma-Aldrich) and negative control wells contained PBS w/o only. The 96-well plate was incubated for one hour at 37 °C in a humidified environment. Following incubation, 180 µL of PBS without cations was added to each well and the plate was centrifuged at 2500 rpm for 10 min. 100 µL of supernatant from each well was removed and aliquoted into clean wells. Absorbance at 350 nm was recorded using a plate reader. Triplicate repeats were pooled to yield an overall mean point estimate ± SEM of haemolysis that was expressed as a percentage of the positive control. For neutrophil toxicity freshly isolated human peripheral neutrophils were resuspended at 10 × 10^6 cells/mL in IMDM with 10% autologous serum and cultured for 18hrs ± 5 µM NAP at 37 degrees in a 5% CO2 incubator. […] Duplicate repeats were pooled to yield an overall mean point estimate ± SEM of apoptosis and necrosis that was expressed as a percentage of total cells.

rats = assay: GLP toxicology study, delivery via the trachea; type: in vivo, rat
Description: NAP was delivered via the trachea to rats in a Contract Research Organization Good Laboratory Practice (GLP) toxicology study at approximately 700 times the human dose. NAP (100 µg) was instilled and rats underwent necroscopy at 3 and 15 days after delivery. […] The release specifications for NAP drug substance and drug product are shown in Supplementary tables S3 and S4.
All experiments using human volunteers were performed following approval from the appropriate regional ethics committee (REC) and informed consent was obtained from each participant or their personal legal representative for adults with incapacity (in accordance with the Adults with Incapacity (Scotland) Act 2000). BALF for alveolar macrophages: (East of Scotland Research Ethics Committee 1 no: 07/S1102/20), blood for assessment of leucocyte populations (Lothian Research Ethics Committee no: 08/S1103/38), and first-in-human assessment of probe performance and safety (Scotland A Research Ethics Committee no: 12/SS/0004, EudraCT 2011-006169-17, NCT01532024). All methods were performed in accordance with the relevant guidelines and regulations. Animal toxicology was conducted in compliance with UK Good Laboratory Practice Regulations by a third party contract research organization (Covance Laboratories Ltd, Harrogate, UK) under Covance UK Home Office License for toxicology. […]

erythrocytes = assay: Erythrocyte haemolysis (membrane toxicity); type: cell-based, human; conditions: NAP 5 µM or working concentration × 2, 1 h 37 °C, absorbance 350 nm, vs Triton X-100 0.4%
Description: as §1

Q: What does the source list for `CC(C)(C)C(=O)Oc1ccc(S(=O)(=O)Nc2ccccc2C(=O)NCC(=O)O)cc1` [Sivelestat]?
A: effect of inhibitor on intracellular NAP fluorescent signal (confocal) [1]: abrogated; effect of inhibitor on intracellular NAP fluorescent signal (flow cytometry) [2]: abrogated; effect of inhibitor on cleavage of NAP by HNE ([3]; Sivelestat 100 µM, NAP 5 µM, 100 nM HNE): completely abrogated

Q: With `O.O=C(N/N=C/c1ccc(O)c(O)c1)c1cc2ccccc2cc1O` [Dynasore Hydate, Dynasore Hydrate] as the compound, how does the “effect of inhibitor on intracellular NAP fluorescent signal (flow cytometry)” value [2] read?
A: Its value is “abrogated”.

Q: Which “change in fluorescence with pH” value [4] does the source give for carboxyfluorescein here?
A: Its value is “expected increase in fluorescence as H^+ concentration falls”.

Q: With `CCCC[C@H](NC(=O)[C@@H](NC(=O)[C@H](CCC(=O)O)NC(=O)[C@H](CCC(=O)O)NC(=O)COCCOCCNC(=O)c1ccc2c(c1)C(=O)OC21c2ccc(O)cc2Oc2cc(O)ccc21)[C@@H](C)CC)C(=O)N[C@@H](CCCNC(=N)N)C(=O)N[C@@H](CCCNC(=N)N)C(=O)NCCCOCC(COCCCNC(=O)[C@H](CCCNC(=N)N)NC(=O)[C@H](CCCNC(=N)N)NC(=O)[C@H](CCCC)NC(=O)[C@@H](NC(=O)[C@H](CCC(=O)O)NC(=O)[C@H](CCC(=O)O)NC(=O)COCCOCCNC(=O)c1ccc2c(c1)C(=O)OC21c2ccc(O)cc2Oc2cc(O)ccc21)[C@@H](C)CC)(COCCCNC(=O)[C@H](CCCNC(=N)N)NC(=O)[C@H](CCCNC(=N)N)NC(=O)[C@H](CCCC)NC(=O)[C@@H](NC(=O)[C@H](CCC(=O)O)NC(=O)[C@H](CCC(=O)O)NC(=O)COCCOCCNC(=O)c1ccc2c(c1)C(=O)OC21c2ccc(O)cc2Oc2cc(O)ccc21)[C@@H](C)CC)NC(N)=O` (stereo partly drawn) [NAP] (I: {5FAM-AEEA}-EEI[Nle]RR / II: {5FAM-AEEA}-EEI[Nle]RR / III: {5FAM-AEEA}-EEI[Nle]RR; linker I:C-II:C-III:C via X1) as the compound, how does the mutagenicity [5] read?
A: The mutagenicity was “no mutagenicity”.

Q: And the neutrophil necrosis [6]?
A: Its neutrophil necrosis is “did not cause”.

Q: And the “local or distant organ toxicity” value (rats; NAP 100 µg instilled via the trachea (approximately 700 times the human dose), necroscopy at 3 and 15 days)?
A: Its value is “No local or distant organ toxicity was observed”.

Q: What about the “haematological or other metabolic consequences” value (rats; NAP 100 µg instilled via the trachea, 3 and 15 days) of the same compound?
A: The value was “no haematological or other metabolic consequences”.

Q: And the red cell haemolysis (erythrocytes)?
A: Its red cell haemolysis is “did not cause”.

Q: And the “increase in fluorescence compared to the resting state” value ([3]; NAP 5 µM in PBS with purified HNE, 37 °C, read every minute for 1 h, ex 488 nm / em 525 nm, three independent experiments)?
A: Its value is ~350%.

Q: With `c1ccc2c(c1)[I+]c1ccccc1-2` [DPI, Diphenyleneiodonium] as the compound, how does the “effect of inhibitor on intracellular NAP fluorescent signal (flow cytometry)” value [2] read?
A: The value was “reduced the overall mean fluorescent intensity”.

— paper PMC7806726, “Activated neutrophil fluorescent imaging technique for human lungs” (Scientific Reports, 2021)
